We go through eleven compounds from PubChem BioAssay (NCI).

Among the test systems are CCRF-CEM leukemia; RPMI-8226 leukemia; SK-OV-3 ovarian; UACC-62 melanoma; SK-MEL-28 melanoma; SF-295 CNS; OVCAR-3 ovarian; SK-MEL-2 melanoma; SNB-19 CNS; MALME-3M melanoma.
Holding throughout (experiment): growth of human tumour cells (NCI), 48 h

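Step 1: Grow cells in 96-well plates. Step 2: Expose to compound for 48 hours at 5 concentrations. Step 3: Interpolate endpoints linearly; if unreached, use highest concentration. GI50 marks 50% less growth. TGI: concentration producing complete growth inhibition.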 Where only a bound is given, the exact number is not on record here.

As for `CC1(C)CCOC(Sc2ccccc2)C1` (stereo not given), the TGI is greater than 100 µM with CCRF-CEM leukemia; 91.3 µM with RPMI-8226 leukemia; greater than 100 µM with SK-OV-3 ovarian; greater than 100 µM in the test with UACC-62 melanoma; greater than 100 µM in the test with SK-MEL-28 melanoma; greater than 100 µM in the test on SF-295 CNS. The TGI is greater than 100 µM in the test on OVCAR-3 ovarian, 69.9 µM in the test with SK-MEL-2 melanoma and greater than 100 µM with SNB-19 CNS.
Regarding `NNC(=O)C(=O)N/N=C1\CCCC1C(=O)CCC(=O)Nc1cccc(Cl)c1` (stereo not given), the TGI in the test with CCRF-CEM leukemia, in the test on RPMI-8226 leukemia, in the test with UACC-62 melanoma, in the test on SK-MEL-28 melanoma, with MALME-3M melanoma and in the test on SF-295 CNS was greater than 100 µM in each case. The TGI with OVCAR-3 ovarian, in the test with SK-MEL-2 melanoma and in the test with SNB-19 CNS was greater than 100 µM in each case.
Take `O=C1CC[C@@H]2[C@H]3CCC(=O)c4c3c(c3cccc(O)c3c4O)O[C@@]23C(=O)c2cccc(O)c2C(O)=C13`: the GI50 is greater than 100 µM with RPMI-8226 leukemia; greater than 100 µM in the test with UACC-62 melanoma; greater than 100 µM with SK-MEL-28 melanoma; 74.4 µM with SK-MEL-2 melanoma; greater than 100 µM in the test on SNB-19 CNS. The TGI in the test with RPMI-8226 leukemia, in the test with UACC-62 melanoma, with SK-MEL-28 melanoma, with SK-MEL-2 melanoma and in the test with SNB-19 CNS was greater than 100 µM in each case.
Consider `COc1ccc(C(=O)c2no[n+]([O-])c2C(=O)c2ccc(OC)cc2)cc1`, for which the GI50 with RPMI-8226 leukemia was 2.06 µM; in the test with SK-OV-3 ovarian it was 18 µM; with UACC-62 melanoma, 10.3 µM; with SK-MEL-28 melanoma, 9.03 µM; in the test with MALME-3M melanoma, 0.82 µM; with SF-295 CNS, 17.8 µM. For the same compound, the GI50 is 1.87 µM with OVCAR-3 ovarian, 6.59 µM with SK-MEL-2 melanoma and 42.2 µM in the test with SNB-19 CNS. Also, the TGI worked out at 4.85 µM in the test on RPMI-8226 leukemia; 32 µM in the test with SK-OV-3 ovarian; 23.9 µM in the test with UACC-62 melanoma; 22.1 µM in the test on SK-MEL-28 melanoma; 3.07 µM in the test on MALME-3M melanoma; 34.7 µM with SF-295 CNS. Further, the figures for the TGI in the test with OVCAR-3 ovarian, in the test on SK-MEL-2 melanoma and in the test with SNB-19 CNS were 3.31 µM, 23.1 µM and greater than 100 µM, respectively.
With `O=C1c2ccccc2-n2c1nc1ccc([N+](=O)[O-])cc1c2=O`, the TGI is greater than 100 µM with CCRF-CEM leukemia; 84.4 µM with RPMI-8226 leukemia; greater than 100 µM with SK-OV-3 ovarian; greater than 100 µM in the test on UACC-62 melanoma; greater than 100 µM in the test with SK-MEL-28 melanoma; greater than 100 µM in the test with MALME-3M melanoma. Also, the TGI with SF-295 CNS is 79.7 µM; with OVCAR-3 ovarian, 99.7 µM; in the test on SNB-19 CNS, greater than 100 µM.
Regarding `Cc1nc2sc(C(=O)Nc3cccc4c3OCCO4)c(N)c2cc1C(C)O` (stereo not given), the GI50 with CCRF-CEM leukemia was 3.5 µM; with RPMI-8226 leukemia it was 4.16 µM; in the test with SK-OV-3 ovarian it was 5.75 µM; in the test with UACC-62 melanoma, 2.97 µM; with SK-MEL-28 melanoma it was greater than 100 µM; with SF-295 CNS it was 5.04 µM. Moreover, the GI50 in the test with OVCAR-3 ovarian was 3.6 µM; in the test with SNB-19 CNS it was 6.8 µM. Besides, the TGI in the test on CCRF-CEM leukemia, with RPMI-8226 leukemia, with SK-OV-3 ovarian, with UACC-62 melanoma, in the test on SK-MEL-28 melanoma and with SF-295 CNS was greater than 100 µM in each case. Further, the TGI with OVCAR-3 ovarian and in the test with SNB-19 CNS was greater than 100 µM in each case.
Take `O=C1C=C(c2ccccc2)NC1(c1ccccc1)c1cc(-c2ccccc2)[nH]c1-c1ccccc1` (stereo not given): the TGI with CCRF-CEM leukemia, with SK-OV-3 ovarian, in the test with UACC-62 melanoma, with SK-MEL-28 melanoma, with SF-295 CNS and in the test on OVCAR-3 ovarian was greater than 100 µM each time. Moreover, the TGI in the test on SK-MEL-2 melanoma and in the test on SNB-19 CNS was greater than 100 µM each time.
Consider `CN(COC(=O)C(C)(C)C)c1nc(N(C)COC(=O)C(C)(C)C)nc(N(C)COC(=O)C(C)(C)C)n1`, for which the TGI with CCRF-CEM leukemia is greater than 100 µM; in the test with SK-OV-3 ovarian it was greater than 100 µM; in the test on SK-MEL-28 melanoma it was greater than 100 µM; in the test on MALME-3M melanoma it was 98.5 µM; with SF-295 CNS, greater than 100 µM; in the test with OVCAR-3 ovarian, greater than 100 µM. Besides, the TGI with SK-MEL-2 melanoma and in the test with SNB-19 CNS was greater than 100 µM in each case.
Regarding `COc1ccc(/C(=N/O)c2cc(F)c(F)c(OC)c2F)cc1O`, the GI50 in the test on CCRF-CEM leukemia is 0.528 µM; with RPMI-8226 leukemia, 0.43 µM; with SK-OV-3 ovarian, 0.523 µM; in the test with SK-MEL-28 melanoma it was 10.8 µM; in the test with SF-295 CNS, 0.392 µM; in the test on OVCAR-3 ovarian, 0.345 µM. Moreover, the GI50 is 0.421 µM in the test with SK-MEL-2 melanoma and 0.827 µM with SNB-19 CNS. The TGI was 35.2 µM in the test on CCRF-CEM leukemia; 23.7 µM in the test on RPMI-8226 leukemia; greater than 100 µM in the test with SK-OV-3 ovarian; greater than 100 µM in the test on SK-MEL-28 melanoma; 18.2 µM with SF-295 CNS; 16.5 µM with OVCAR-3 ovarian. Moreover, the TGI with SK-MEL-2 melanoma and in the test with SNB-19 CNS was greater than 100 µM in each case.
Regarding `CCOC(=O)c1c(C)n(Cc2ccc(Cl)cc2Cl)c2c1cc(O)c1[nH]c(Cc3ccccc3)nc12`, the GI50 in the test with RPMI-8226 leukemia was 1.92 µM; in the test on SK-OV-3 ovarian, 16.3 µM; in the test with UACC-62 melanoma, 18.6 µM; with SK-MEL-28 melanoma, 13 µM; in the test on MALME-3M melanoma, 7.26 µM; in the test with SF-295 CNS it was 5.92 µM. In addition, the GI50 in the test with OVCAR-3 ovarian was 2.97 µM; with SK-MEL-2 melanoma it was 9.39 µM; in the test on SNB-19 CNS, 5.54 µM. For the same compound, the TGI in the test with RPMI-8226 leukemia amounted to 3.9 µM; in the test on SK-OV-3 ovarian, 32 µM; in the test with UACC-62 melanoma, 34.1 µM; in the test with SK-MEL-28 melanoma, 27.7 µM; with MALME-3M melanoma, 28.8 µM; with SF-295 CNS it was 26.2 µM. Also, the figures for the TGI with OVCAR-3 ovarian, in the test with SK-MEL-2 melanoma and with SNB-19 CNS were 8.13 µM, 37.2 µM and 23.1 µM, respectively.
In the case of `O=C1c2ccccc2C(=O)N1CCN(CCN1C(=O)c2ccccc2C1=O)Cc1ccccc1`, the TGI in the test with CCRF-CEM leukemia, with RPMI-8226 leukemia, in the test with SK-OV-3 ovarian, with UACC-62 melanoma, in the test on SK-MEL-28 melanoma and in the test on SF-295 CNS was greater than 100 µM each time. Besides, the TGI in the test with OVCAR-3 ovarian, with SK-MEL-2 melanoma and in the test on SNB-19 CNS was greater than 100 µM each time.
